Results on 18 molecules are retold here after ChEMBL document CHEMBL1764984 (J Med Chem, 2011).

The subject of data set [1] is Blood. The data set is described as follows: Inhibition of TNFalpha-induced IL1-beta production in human whole blood after 2 to 5 hrs by ELISA. It counts as functional, tissue-based. On the technique in general: ELISA stands for enzyme-linked immunosorbent assay.
A short description of data set [2]: Aqueous solubility of the compound in phosphate buffer at pH 6.5. The class given is physicochemical.
Data set [3] can be described thus: Permeability of the compound from apical to basolateral side of human Caco2 cells at 10 uM after 21 days. It counts as ADME, cell-based. To be noted: Caco-2, read-out: permeability. For orientation: Passage across Caco-2 layers is used to estimate intestinal permeability.
Data set [4] can be described thus: Permeability of the compound from basolateral to apical side of human Caco2 cells at 10 uM after 21 days. It counts as ADME, cell-based. To be noted: Caco-2, read-out: permeability.
For data set [5], the system named is Rattus norvegicus. The data set is described as follows: Inhibition of LPS-induced TNFalpha production in rat serum at 3 mg/kg, po administered 30 mins before LPS challenge measured after […] by ELISA. It counts as functional.
Data set [6] deals with T1, Mitogen-activated protein kinase 14 (Homo sapiens, UniProt Q16539). Kind of data set: Inhibition of human recombinant p38alpha assessed as incorporation of 33P from gamma-[33P]ATP into myelin basic protein after 30 mins by scintillation counting.
Data set [7] deals with Tyrosine-protein kinase Lck (Homo sapiens, UniProt P06239). Kind of data set: Inhibition of LCK.
For data set [8], the target named is T1, Mitogen-activated protein kinase 14. The data set is described as follows: Inhibition of p38alpha.

Converted amounts (≈) assume the structure as drawn.

T1 sequence (Q16539 whole entry): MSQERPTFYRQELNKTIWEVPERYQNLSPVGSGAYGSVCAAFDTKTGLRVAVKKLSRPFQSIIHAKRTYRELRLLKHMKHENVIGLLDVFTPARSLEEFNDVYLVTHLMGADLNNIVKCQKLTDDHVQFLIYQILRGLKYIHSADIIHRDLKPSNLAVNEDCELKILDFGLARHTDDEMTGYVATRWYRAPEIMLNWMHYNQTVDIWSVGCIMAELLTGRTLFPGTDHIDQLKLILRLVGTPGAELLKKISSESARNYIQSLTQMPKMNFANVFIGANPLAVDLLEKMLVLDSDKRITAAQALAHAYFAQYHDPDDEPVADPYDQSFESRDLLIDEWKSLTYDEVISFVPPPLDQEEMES
Sequence of Tyrosine-protein kinase Lck (P06239 whole entry): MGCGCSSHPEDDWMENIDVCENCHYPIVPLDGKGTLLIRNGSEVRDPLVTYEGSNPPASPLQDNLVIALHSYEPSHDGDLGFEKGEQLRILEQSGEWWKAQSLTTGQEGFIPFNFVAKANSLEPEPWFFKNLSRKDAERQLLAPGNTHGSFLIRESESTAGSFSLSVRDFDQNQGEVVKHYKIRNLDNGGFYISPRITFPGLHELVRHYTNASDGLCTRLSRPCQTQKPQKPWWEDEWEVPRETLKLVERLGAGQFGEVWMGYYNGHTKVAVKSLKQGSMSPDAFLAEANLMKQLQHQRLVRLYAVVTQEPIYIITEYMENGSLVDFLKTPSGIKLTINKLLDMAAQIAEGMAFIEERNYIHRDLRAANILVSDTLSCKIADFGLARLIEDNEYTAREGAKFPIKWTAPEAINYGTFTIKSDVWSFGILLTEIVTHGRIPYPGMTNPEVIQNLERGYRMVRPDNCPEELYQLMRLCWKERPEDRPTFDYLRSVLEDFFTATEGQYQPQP

For the molecule `C[C@H](Cn1ncnn1)Nc1ncc2cc(Oc3ccc(F)cc3F)c(=O)n(C)c2n1`, the IC50 in data set [1] was found to be 318 nM.

As to `C[C@@H](CS(C)(=O)=O)Nc1ncc2cc(Oc3ccc(F)cc3F)c(=O)n(C)c2n1`, in data set [1], the IC50 is above 3000 nM.

In data set [1], `C[C@H](CS(C)(=O)=O)Nc1ncc2cc(Oc3ccc(F)cc3F)c(=O)n(C)c2n1` returned an IC50 of 50 nM. The molecule further returned a solubility in data set [2] of 18 µg/mL (≈ 42.4 µM). Moreover, the Papp A→B at 10 µM in data set [3] is 13.5 ×10⁻⁶ cm/s. In data set [4], the Papp B→A at 10 µM stood at 22.4 ×10⁻⁶ cm/s. Testing at 3 mg/kg in data set [5] gave an inhibition in vivo of 88%.

In the case of `CC(C)Nc1ncc2cc(Oc3ccc(F)cc3F)c(=O)n(C)c2n1`, the IC50 in data set [6] amounted to 4 nM; in data set [1] it was 45 nM.

The molecule `Cn1c(=O)c(Oc2ccccc2)cc2cnc(NC3CCOCC3)nc21` displayed a 50% inhibitory concentration (IC50) in data set [1] of 451 nM.

Take `C[C@@H](Cn1ncnn1)Nc1ncc2cc(Oc3ccc(F)cc3F)c(=O)n(C)c2n1`: in data set [1], the IC50 was 9 nM. In data set [2], this molecule displayed a solubility of 23 µg/mL (≈ 55.5 µM). Moreover, the Papp A→B at 10 µM in data set [3] came to 30.1 ×10⁻⁶ cm/s. Moreover, in data set [4], the Papp B→A at 10 µM was 19.7 ×10⁻⁶ cm/s. In data set [5], testing at 3 mg/kg gave an inhibition in vivo of 90%.

As to `CCN(CC)CCOc1ccc(Nc2ncc3c(n2)N(C)C(=O)N(c2c(Cl)cccc2Cl)C3)cc1`, the figures for the Kd in data set [7] and in data set [8] were 0.2 nM and 10 nM, respectively.

For `O=C1Nc2nc(N[C@H]3CC[C@H](O)CC3)ncc2CN1c1ccccc1Cl`, the Kd is above 20000 nM in data set [7] and 32 nM in data set [8].

In data set [7], `Cn1c(=O)c(-c2ccccc2Cl)cc2cnc(NC3CCOCC3)nc21` gave a Kd of 1800 nM. In addition, it took 85.7 nM to reach half-maximal inhibition in data set [1] (IC50).

Molecule `Cn1c(=O)c(Oc2ccc(F)cc2)cc2cnc(NC3CCOCC3)nc21` displayed an IC50 in data set [1] of 547 nM.

On to `Cn1c(=O)c(Oc2cccc(F)c2)cc2cnc(NC3CCOCC3)nc21`, for which the figures for the IC50 in data set [6] and in data set [1] were 594 nM and 1220 nM, respectively.

In the case of `Cn1c(=O)c(Oc2ccccc2F)cc2cnc(NC3CCOCC3)nc21`, the IC50 turned out to be 15 nM in data set [6] and 64.8 nM in data set [1].

Regarding `Cn1c(=O)c(Sc2ccccc2F)cc2cnc(NC3CCOCC3)nc21`, the IC50 was 111 nM in data set [6] and 731 nM in data set [1].

Turning to `Cn1c(=O)c(Cc2ccccc2F)cc2cnc(NC3CCOCC3)nc21`, the results for the IC50 in data set [6] and in data set [1] were 42 nM and 407 nM, respectively.

On to `Cn1c(=O)c(Cc2ccc(F)cc2F)cc2cnc(NC3CCOCC3)nc21`, for which the IC50 came to 40 nM in data set [6] and 713 nM in data set [1].

Turning to `O=c1[nH]c2nc(NC3CCOCC3)ncc2cc1Oc1ccc(F)cc1F`, the IC50 in data set [6] worked out at 18 nM; in data set [1], 84 nM.

Take `CCn1c(=O)c(Oc2ccc(F)cc2F)cc2cnc(NC3CCOCC3)nc21`: the IC50 amounted to 1 nM in data set [6] and 15 nM in data set [1].

For `O=c1c(Oc2ccc(F)cc2F)cc2cnc(NC3CCOCC3)nc2n1C1CC1`, the values for the IC50 in data set [6] and in data set [1] were 9 nM and 13 nM, respectively.

As usually defined, the IC50 is the concentration that inhibits the measured activity by half. Broadly, the solubility is the dissolved amount per volume that the medium holds. For orientation: inhibition in vivo means the drop in the measured response relative to a control, in per cent. A low value points to a response near the control. As a reminder, the Kd is a measure of binding affinity in units of concentration. A low value points to a tighter complex.
